# Reference: patent US8501759B2, “Use of fibrates” (Fournier Laboratories Ireland Limited, priority 2009, dated 2013)
# Experiments:
# [1] = 160 mg tablet administered with food; cited from earlier work
# [2] = test system: patients with sleep apnea syndrome; assay: Overnight sleep study: apnea/hypopnea recording (CID 102) in the 1-month placebo-controlled study; assay type: in vivo, human
# Excerpt: This study comprised 2 phases: • a run-in period of 1 to 5 weeks, on usual diet, • a treatment period of at least 4 weeks (40 days maximum).
# (§1) Primary variables: number of obstructive apneas, of central apneas, of mixed apneas, total number of apneas, index of apnea per sleep hour, total number of hypopneas, index of hypopnea per sleep hour, index of apnea/hypopnea per sleep hour, total number of desaturations per sleep hour (with a variation of at least 3-4%), and percentage of time spent with SpO2<90%.
# (§2) Variables assessed as complementary analyses: cumulated duration of apnea, mean duration of apnea, duration of the longest apnea, number of non cortical micro-awakening indicators related to respiratory events/hour, number of non cortical micro-awakening indicators related to respiratory events, oxygen saturation in blood measured by pulse oximetry (SpO2) in wake state, mean SpO2 on sleep recording, minimum value of SpO2, percentage of time spent with SpO2<80%, percentage of time spent with SpO2<85%, number of tachycardia, mean duration of tachycardia, number of bradycardia, mean duration of bradycardia, mean pulse rate, standard deviation pulse rate, minimum pulse rate, maximum pulse rate, decrease in daytime sleepiness assessed by the ESS, vigilance tests (reflexive visually guided saccades, antisaccades and sustained attention test).
# Throughout the night, respiration was monitored by a sound pressure transducer placed on the suprasternal notch facing the trachea or thoracic strain gauges (model CID 102) (Van Surell C, Lemaigre D, Leroy M, Foucher A, Hagenmuller M P, Raffestin B. Evaluation of an ambulatory device, CID 102, in the diagnosis of obstructive sleep apnea syndrome. Eur Respir J. 1995; 8(5):795-800).
# Apnea is defined as an absence of inspiratory flow for at least 10 seconds.
# Hypopnea is defined as a 50% to 80% reduction in airflow combined with 3-4% oxygen desaturations.
# Sleep apneas are classified as obstructive or central.
# Central apneas are defined as total absence of inspiratory flow and chest/abdominal movement during the period of absence of inspiration flow.
# Obstructive sleep apneas are defined by a decrease in airflow of more than 80% in the presence of paradoxical movements of the ribcage and abdomen. Similar to AHI, the obstructive and central apneas were based on definitions that require events to be associated with 3-4% desaturations.
# [3] = test system: patients with sleep apnea syndrome; assay: Epworth Sleepiness Scale (ESS); assay type: in vivo, human; details: fenofibrate group, at baseline and at end of treatment; global score 0 to 24
# Excerpt: as §2
# This scale is the most widely index used to measure sleep apnea subjectively. It is a self-administered questionnaire that asks patients their likelihood of falling asleep in 8 situations ranked from 0 (no chance of dozing), 1 (slight chance of dozing), 2 (moderate chance of dozing) to 3 (high chance of dozing). The numbers are then added together to obtain a global score between 0 and 24. A value of 10 or below is considered normal.
# [4] = test system: patients with sleep apnea syndrome; assay: Laboratory efficacy variables (lipids, glucose, fibrinogen, insulin); assay type: in vivo, human
# Description: Secondary variables: % change from baseline (V2) in fasting and post-prandial TG, total cholesterol (TC), high-density lipoprotein cholesterol (HDL-C), fasting plasma glucose (FPG), fibrinogen and insulin.
# TC, TG, HDL-C, glucose, fibrinogen and insulin were measured at inclusion and during the 2 hospital admissions before a lipid rich breakfast. Insulin was also measured before the lipid rich breakfast, each morning following the sleep study.
# Post-prandial TG were measured 4 hours after a lipid rich breakfast.
# [5] = test system: patients with sleep apnea syndrome; assay: Overnight sleep study: pulse oximetry (SpO2, desaturations); assay type: in vivo, human
# Excerpt: as §1, §2
# Desaturation episodes were the markers of respiratory impairment. All-night recordings of arterial oxygen saturation were obtained using a cardio-respiratory pulse oximeter attached to the finger (SpO2).
# Severity of obstructive sleep apnea was measured by the number of falls in SpO2 of more than 3-4% per hour of sleep. The equipment automatically selected the desaturation threshold (3 or 4%) according to the baseline SpO2 value. To further define the severity of OSA, the lowest SpO2 point and the percentage of time spent with SpO2<90% was determined.
# [6] = test system: patients with sleep apnea syndrome; assay: Sustained attention test; details: end of treatment (V3)
# [7] = test system: patients with sleep apnea syndrome; assay: Safety (adverse events, safety laboratory, vital signs)
# [8] = ANCOVA on Log-transformed V3 values, relative difference
# [9] = end of treatment (V3), ANCOVA on non-transformed data
# [10] = fenofibrate 145 mg group, end of treatment (V3)
# [11] = end of treatment (V3), ANCOVA on Log-transformed data, relative difference
# [12] = end of treatment (V3), ANCOVA on non-transformed data, absolute difference
# [13] = fenofibrate group, treatment period
smiles,measurement,setting,value
"CC(C)OC(=O)C(C)(C)Oc1ccc(C(=O)c2ccc(Cl)cc2)cc1 [Fenofibrate, fenofibrate]",increase of exposure to fenofibric acid with food compared to fasting conditions,[1],35%
same,"Number of central apneas, Fenofibrate-Placebo at end of treatment, Estimate",[2]; [8],−55%
same,"Number of hypopneas, Fenofibrate-Placebo at end of treatment, Estimate",[2]; [8],−46%
same,"Number of mixed apneas, Fenofibrate-Placebo at end of treatment, Estimate",[2]; [8],−25%
same,"Number of obstructive apneas, Fenofibrate-Placebo at end of treatment, Estimate",[2]; [8],−44%
same,"Number of apneas, Fenofibrate-Placebo at end of treatment, Estimate","[2]; ANCOVA on Log-transformed V3 values, relative difference, minus = improvement",−35%
same,"Cumulated duration of apnea, Fenofibrate-Placebo Estimate","[2]; end of treatment (V3), ANCOVA on Log-transformed data",−31%
same,"Number of non cortical micro-awakening, Fenofibrate-Placebo Estimate",[2]; [9],−75.7
same,"Cumulated duration of apnea, End (V3) (median)",[2]; [10],4.5 min
same,"Duration of the longest apnea, End (V3) (median)",[2]; [10],23.5 s
same,"Mean duration of apnea, End (V3) (median)",[2]; [10],13.5 s
same,"Number of central apneas, End (V3) (median)",[2]; [10],1.0
same,"Number of hypopneas, End (V3) (median)",[2]; [10],63.0
same,"Number of mixed apneas, End (V3) (median)",[2]; [10],1.0
same,"Number of non cortical micro-awakening, End (V3) (median)",[2]; [10],128.0
same,"Number of obstructive apneas, End (V3) (median)",[2]; [10],15.0
same,"Number of apneas, End (V3) (median)","[2]; fenofibrate 145 mg group, end of treatment (V3), total number during sleep recording",20.5
same,"Non cortical micro-awakening per hour, End (V3) (median)","[2]; fenofibrate 145 mg group, end of treatment (V3), indicators related to respiratory events",18.0
same,median of the ESS,[3],8.5
same,effect on fasting plasma glucose (FPG),[4]; end of treatment,no effect
same,"HDL-Cholesterol, Fenofibrate-Placebo Estimate",[4]; [11],2%
same,"Post-Prandial Triglycerides, Fenofibrate-Placebo Estimate",[4]; [11],−26%
same,"Fasting Plasma Glucose, Fenofibrate-Placebo Estimate",[4]; [12],0.2 mmol/L
same,"Fibrinogen, Fenofibrate-Placebo Estimate",[4]; [12],-1.7 µmol/L
same,"Insulin, Fenofibrate-Placebo Estimate",[4]; [12],12.1 pmol/L
same,"Total Cholesterol, Fenofibrate-Placebo Estimate",[4]; [12],-0.8 mmol/L
same,"Fasting Plasma Glucose, End (V3) (median)",[4]; [10],5.45 mmol/L
same,"Fasting Triglycerides, End (V3) (median)",[4]; [10],2.00 mmol/L
same,"Fibrinogen, End (V3) (median)",[4]; [10],8.82 µmol/L
same,"Insulin, End (V3) (median)",[4]; [10],94.4 pmol/L
same,"Total Cholesterol, End (V3) (median)",[4]; [10],4.58 mmol/L
same,"Post-Prandial Triglycerides, End (V3) (median)","[4]; fenofibrate 145 mg group, end of treatment (V3), 4 hours after a lipid rich breakfast",3.27 mmol/L
same,"Number of desaturations, Fenofibrate-Placebo at end of treatment, Estimate",[5]; [8],−23%
same,"Mean of SPO2 on recording, Fenofibrate-Placebo Estimate",[5]; [9],1.1%
same,"Minimum value of SpO2, Fenofibrate-Placebo Estimate",[5]; [9],0.4%
same,"Mean of SPO2 on recording, End (V3) (median)",[5]; [10],94.0%
same,"Minimum value of SpO2, End (V3) (median)",[5]; [10],82.0%
same,"Number of desaturations, End (V3) (median)",[5]; [10],130.0
same,"Percentage of time with SpO2 < 90%, End (V3) (median)",[5]; [10],3.5%
same,"Percentage time spent with SpO2 < 80%, End (V3) (median)",[5]; [10],0.0%
same,"Percentage time spent with SpO2 < 85%, End (V3) (median)",[5]; [10],0.0%
same,"SpO2 in wake state, End (V3) (median)",[5]; [10],95.0%
same,"Maximum latency all sarters, Fenofibrate-Placebo Estimate","[6]; ANCOVA on Log-transformed data, relative difference",7%
same,"Mean latency all sarter, Fenofibrate-Placebo Estimate","[6]; ANCOVA on non-transformed data, absolute difference",3.6 ms
same,"Maximum latency all sarters, End (V3) (median)",[6]; fenofibrate 145 mg group,750.0 ms
same,"Minimum latency all sarters, End (V3) (median)",[6]; fenofibrate 145 mg group,295.0 ms
same,"Percent false responses all sarters, End (V3) (median)",[6]; fenofibrate 145 mg group,1.1
same,"Percent omissions all sarters, End (V3) (median)",[6]; fenofibrate 145 mg group,0.0
same,"Standard Deviation latency all sarters, End (V3) (median)",[6]; fenofibrate 145 mg group,98.0 ms
same,"Mean latency all sarter, End (V3) (median)","[6]; fenofibrate 145 mg group, mean of the 5 tests",409.7 ms
same,tolerability,"[7]; 4-week treatment, 145 mg once daily",well tolerated
same,"changes in mean values of pulse rate, DBP or SBP between baseline and end of treatment",[7]; either treatment group,no meaningful changes
same,"other safety biological variables (ALT, AST, CK), fenofibrate vs placebo",[7]; end of treatment,did not differ between the 2 groups
same,Median % change at end of treatment from baseline in RBC,[7]; fenofibrate group,−2.7%
same,Median % change at end of treatment from baseline in WBC,[7]; fenofibrate group,−11.6%
same,Median % change at end of treatment from baseline in hematocrit,[7]; fenofibrate group,−3.2%
same,Median % change at end of treatment from baseline in hemoglobin,[7]; fenofibrate group,−3.8%
same,AEs reported (kinds),[7]; [13],"bloating (n=1), rash (n=1), allergic rhinitis (n=1), metabolic syndrome (SAE, n=1), type 2 diabetes (n=1), and cystitis (n=1)"
same,number of AEs reported,[7]; [13],6
same,number of patients with AEs,[7]; [13],3
same,number of SAE reported during the treatment period,"[7]; fenofibrate group, hospitalized for assessment of metabolic syndrome, not related to study treatment",1
same,Median % change at end of treatment from baseline in platelets,"[7]; fenofibrate group, p=0.007 vs placebo",+4.7%
same,Median % change at end of treatment from baseline in creatinine,"[7]; fenofibrate group, p=0.015 vs placebo",+5.9%
same,mean values of body weight and BMI at end of treatment compared to baseline,[7]; in vivo,remained roughly unchanged
same,AEs considered as related to study treatment,[7]; treatment period,None
